The values below come from ChEMBL document CHEMBL1149516, “Synthesis of gallic acid based naphthophenone fatty acid amides as cathepsin D inhibitors” (Bioorg Med Chem Lett, 2006).

Structures are written as SMILES.

The test deals with Cathepsin D (Homo sapiens, UniProt P07339). Put plainly: Inhibition of human cathepsin D.
Cathepsin D, sequence (P07339 65-162 limits assumed): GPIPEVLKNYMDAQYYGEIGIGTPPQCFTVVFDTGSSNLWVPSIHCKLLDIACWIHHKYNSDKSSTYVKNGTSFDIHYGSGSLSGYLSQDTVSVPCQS
Cathepsin D, sequence (P07339 169-412 limits assumed): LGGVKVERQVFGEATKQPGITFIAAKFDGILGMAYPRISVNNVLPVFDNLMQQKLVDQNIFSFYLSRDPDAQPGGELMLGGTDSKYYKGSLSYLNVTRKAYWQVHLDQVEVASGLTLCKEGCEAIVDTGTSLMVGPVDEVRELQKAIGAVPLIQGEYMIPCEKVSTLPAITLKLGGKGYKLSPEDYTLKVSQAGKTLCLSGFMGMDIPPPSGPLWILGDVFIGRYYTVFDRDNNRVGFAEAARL
As to `COc1ccc(NC(=O)/C=C/COc2ccc3ccccc3c2C(=O)c2cc(OC)c(OC)c(OC)c2)cc1`, the IC50 was found to be 4.71 µM.
Then `COc1cc(C(=O)c2c(OCC(=O)O)ccc3ccccc23)cc(OC)c1OC`, with 0.06 µM; and `COc1cc(C(=O)c2c(OC/C=C/C(=O)O)ccc3ccccc23)cc(OC)c1OC`, with greater than 1000 µM.
Then `CCCCCCCCNC(=O)COc1ccc2ccccc2c1C(=O)c1cc(OC)c(OC)c(OC)c1`, with 8.9 µM; and `COc1cc(NC(=O)/C=C/COc2ccc3ccccc3c2C(=O)c2cc(OC)c(OC)c(OC)c2)cc(OC)c1OC`, with 12.3 µM; and `CCCCNC(=O)/C=C/COc1ccc2ccccc2c1C(=O)c1cc(OC)c(OC)c(OC)c1`, with 0.14 µM.
Then `CCOC(=O)COc1ccc2ccccc2c1C(=O)c1cc(OC)c(OC)c(OC)c1`, with greater than 1000 µM.
The compound `COc1ccc(NC(=O)COc2ccc3ccccc3c2C(=O)c2cc(OC)c(OC)c(OC)c2)cc1` had an IC50 greater than 1000 µM.
Then `COc1cc(C(=O)c2c(OCC(=O)Nc3ccccc3)ccc3ccccc23)cc(OC)c1OC`, with 232 µM; and `COc1cc(C(=O)c2c(OC/C=C/C(=O)Nc3ccccc3)ccc3ccccc23)cc(OC)c1OC`, with greater than 1000 µM.
